Results: patent US12486218B2, “Compounds advantageous in the treatment of central nervous system diseases and disorders” (AurimMed Pharma, Inc., priority 2008, dated 2025)

Columns and labels:
mice [1] = experiment: Minimal motor impairment (MID50), mice i.p.; conditions: mice i.p.
Experimental: The animal testing was performed according to methods known in the relevant art.

mice [2] = experiment: Subcutaneous Metrazol Seizure threshold (s.c. MET) test, mice i.p.; format: in vivo
mice [3] = experiment: Maximal Electroshock Seizure (MES) test, mice i.p.; format: in vivo; conditions: for activity in the MES test: mice
rats [4] = experiment: Pilocarpine-induced Status Epilepticus in Rats (prevention; intervention @ 30 min); conditions: Rattus norvegicus
Experimental: The animal testing was performed using the protocols developed in the Anticonvulsant Screening Program (ASP) at the National Institute of Neurological Disorders and Stroke (NINDS), National Institutes of Health (NIH).

rats [5] = experiment: MES test, rats p.o.; format: in vivo; conditions: at 30 mg/kg
[6] = tested on: rat dopaminergic N27 cells; experiment: N27 protection assay against oxidative stress (H2O2 or MPP+; MTT and LDH); format: cell-based; conditions: drug 24 hours before 200 μM H2O2 or 640 μM MPP+
Excerpt: FIGS. 20A-25D data are shown illustrating neuroprotective and neuroregenerative effects observed in rat dopaminergic N27 cells. Rat dopaminergic N27 cells are commonly used in in vitro and in vivo model systems for studying Parkinson's disease. Parkinson's disease is a neurodegenerative disorder of the central nervous system that affects more than 6 million people worldwide. The motor symptoms of Parkinson's disease result from the death of dopamine generating cells in the substantia nigra, a region of the midbrain.
The N27 rat dopaminergic neuron cell line was harvested from E12 rat mesencephalic tissue and was transfected with SV40 to immortalize the cell line. The N27 cell line, when injected into the striata of 6-hydroxydopamine-lesioned rats (an animal model of PD) caused a time-dependent improvement in neurological deficits. This immortalized cell line has been carefully characterized in studies of dopamine biosynthesis, neurotoxicity and used as a dopaminergic neuron model studies.
The N27 in vitro Parkinson's disease model included a test of cell viability and cell toxicity in response to exposure to oxidative stress (e.g., either 200 μM H2O2 or 640 μM MPP+).
Cell viability was tested using the MTT assay. The MTT assay is a colorimetric analysis based on the activities of mitochondrial NAD(P)H-dependent cellular oxidoreductase enzymes. These enzymes are capable of reducing the tetrazolium dye, MTT [3-(4,5-dimethylthiazol-2-yl)-2,5-diphenyltetrazolium] bromide, to an insoluble formazan (purple). […] More viable cells equal more accumulation of the insoluble formazan dye.
Cell toxicity was tested using the […] (LDH) assay. Cells that are stressed secrete LDH. In general, the more cells are stressed, the LDH they secrete into their media. The LDH assay is a reliable colorimetric assay to measure quantitatively the […] (LDH) that is released into the cell culture media from damaged cells as a biomarker for cytotoxicity and cytolysis.
FIGS. 20A-25D present data from two types of assays: protection and recovery assays. In the protection assays, the drug candidate was applied to the cells at various concentrations for 24 hours, followed by the exposure to oxidative stress (either 200 μM H2O2 or 640 μM MPP+) for measuring neuroprotective effect. H2O2 provides a broad measure of oxidative stress, while MPP+ gives a more specific oxidative stress to dopaminergic neurons.
The protection assay results are shown in panels A-C of FIGS. 20-25 In the recovery assays, the cells were first damaged by exposure to H2O2 and then various concentrations of the drug were applied to the cells. The results for the recovery assays are shown the D panels of FIGS. 20-25.

[7] = tested on: inclusion of exon 7 in SMN2 mRNAs; experiment: Exon 7 inclusion BLA reporter assay in NSC34 cell line; format: cell-based; conditions: for effect on the inclusion of exon 7 in SMN2 transcripts / exon 7 test, particularly strong hits: NSC34 exon 7 BLA reporter cells; for Exon 7 inclusion (summary YES/NO): Table 13 summary
Excerpt: To measure changes in the inclusion of exon 7 in SMN2 mRNAs, another NSC34 cell line was used that stably transfected with a reporter construct which expresses BLA when exon 7 is included in the SMN2 minigene mRNAs. 5-(N-ethyl-N-isopropyl)-amiloride (EIPA) was used as a positive control for this assay. Data for tis assay is illustrated in FIG. 30.

SMN2 promoter = SMN2 promoter β-lactamase reporter assay in NSC34 motor neuron-like cells; format: cell-based; conditions: for Promoter (SMN2 promoter test, summary YES/NO): Table 13 summary; for SMN2 promoter activity: treatment for 19 hours at a concentration of 1 μM
Experimental: FIG. 30 illustrates a screen for SMN2 expression of a number of compounds described herein.
SMN2 promoter activity was measured using NSC34 motor neuron-like cells stably transfected with a β-lactamase (BLA) reporter gene under the control of a 3.4-kilobase fragment of the SMN2 promoter. D156844 was used as a positive control for this assay.

mice [8] = experiment: 6 Hz (minimal clonic seizure) model, mice i.p.; format: in vivo; conditions: for 6 Hz (32 mA), fraction of animals: mice i.p.
[9] = read-out: Prevention, Protection

In the case of `CC(O)(CC(N)=O)c1cccc(OC(F)(F)F)c1` (racemic) [CD], the “MID50, fraction of animals” value (mice [1]; 100 mg/kg @ 0.5 hr) is reported as 1/8 @ 0.50 hr,, the “MID50, fraction of animals” value (mice [1]; 300 mg/kg @ 0.5 hr) is reported as 4/4 @ 0.5 and the “MID50, fraction of animals” value (mice [1]; 300 mg/kg @ 4.0 hr) is reported as “hr & 2/2”. For the same molecule, the “s.c. MET, fraction of animals” value (mice [2]; mice i.p., 30 mg/kg @ 0.5 hr) was 3/5@ 0.50, the “s.c. MET, fraction of animals” value (mice [2]; mice i.p., 100 mg/kg @ 0.5 hr) was 1/1 @ 0.5, and the “s.c. MET, fraction of animals” value (mice [2]; mice i.p., 100 mg/kg @ 4.0 hr) was 1/1 @ 0.5,.

For `CC(O)(CC(N)=O)c1cccc(C(F)(F)F)c1` (racemic) [CE], the “MES, fraction of animals” value (mice [3]; mice i.p., 30 mg/kg @ 0.50 hr) was 1/1 @, the “MID50, fraction of animals” value (mice [1]; 100 mg/kg @ 0.5 hr) was 3/8 @ 0.5 hr, and the “s.c. MET, fraction of animals” value (mice [2]; mice i.p., 30 mg/kg @ 0.5 hr) was 1/5 @ 0.5 hr,. The “s.c. MET, fraction of animals” value (mice [2]; mice i.p., 100 mg/kg @ 0.5 hr) was 1/1 @ 0.5 hr,.

For `NC(=O)[C@@H]1C[C@H]1c1ccccc1` (relative stereo) [Compound P, trans-2-phenylcyclopropane-1-carboxamide], the “activity in the MES test” value (mice [3]; at 300 mg/kg) was “activity”, the responders at 450 mg/kg (rats [4]; [9]) was 100% and the “activity in the MES test” value (rats [5]) was “activity”.

With `NC(=O)CC1(c2ccc(Cl)cc2)CC1` [AH] the MES ED50 (mice [3]; mice i.p., @ 0.25 hr) was 69.6 mg/kg, the “MID50 (TD50)” value (mice [1]; @ 0.25 hr) was 185.73 and the “neuroprotective effect against H2O2 and MPP+ oxidative stresses (MTT and LDH assays)” value [6] was “statistically significant, dose-dependent neuroprotection”. For the same molecule, the “s.c. MET ED50” value (mice [2]; mice i.p., @ 0.25 hr, in mg/kg) was 77.98.

For `NC(=O)CC1(c2ccc(Cl)cc2)CCCC1` [AJ], the “effect on the inclusion of exon 7 in SMN2 transcripts” value (“effect on the inclusion” below) [7] was “positive effect on the inclusion of exon 7”, the “exon 7 test, particularly strong hits” value [7] was “Particularly strong hits” and the “Exon 7 inclusion (summary YES/NO)” value [7] was “YES”. For the same molecule, the “MES, fraction of animals” value (mice [3]; mice i.p., 100 mg/kg @ 0.25 hr) was 3/3, the “MES, fraction of animals” value (mice [3]; mice i.p., 100 mg/kg @ 1.0 hr) was 1/3 and the “Promoter (SMN2 promoter test, summary YES/NO)” value (SMN2 promoter) was “YES”. For the same molecule, the SMN2 promoter activity (SMN2 promoter) was “increased SMN2 promoter activity” and the “s.c. MET, fraction of animals” value (mice [2]; mice i.p., 300 mg/kg @ 0.5 hrs) was 1/1 @ 0.5 hrs,.

`COc1ccc(C(CC(N)=O)C2CC2)cc1` (centres unmarked) [AM, 3-Cyclopropyl-3-(4-methoxy-phenyl)-propionamide] was tested, and the “effect on the inclusion” value [7] was “positive effect on the inclusion of exon 7”, the “exon 7 test, particularly strong hits” value [7] was “Particularly strong hits” and the “Exon 7 inclusion (summary YES/NO)” value [7] was “YES”. The “MES, fraction of animals” value (mice [3]; mice i.p., 100 mg/kg @ 0.25 hr) was 1/3 @, the “activity in the MES test” value (mice [3]; at 100 mg/kg) was “activity” and the responders at 400 mg/kg (rats [4]; 0.5 h, read-out: Intervention @ 30 min, Protection) was 38%. The responders at 200 mg/kg (rats [4]; [9]) was 100%, the “6 Hz (32 mA), fraction of animals” value (mice [8]; 100 mg/kg @ 0.25 hr) was 1/4 and the “6 Hz (32 mA), fraction of animals” value (mice [8]; 100 mg/kg @ 0.5 hr) was 2/4. The “6 Hz (32 mA), fraction of animals” value (mice [8]; 100 mg/kg @ 1.0 hr) was 1/4 @, the “SMN2 promoter assay, particularly strong hits” value (SMN2 promoter; NSC34 BLA reporter cells) was “Particularly strong hits” and the “Promoter (SMN2 promoter test, summary YES/NO)” value (SMN2 promoter) was “YES”. For the same molecule, the SMN2 promoter activity (SMN2 promoter) was “increased SMN2 promoter activity” and the “activity in the MES test” value (rats [5]) was “activity”.

For `COc1ccc(C(CC(N)=O)C2CC2)cc1C` (centres unmarked) [AN, 3-Cyclopropyl-3-(4-methoxy-3-methyl-phenyl)propionamide], the “effect on the inclusion” value [7] was “positive effect on the inclusion of exon 7”, the “MES, fraction of animals” value (mice [3]; mice i.p., 100 mg/kg @ 0.25 hr) was 1/3 @ and the “activity in the MES test” value (mice [3]; at 100 mg/kg) was “activity”. The “6 Hz (32 mA), fraction of animals” value (mice [8]; 100 mg/kg @ 0.25 hr) was 4/4, the “6 Hz (32 mA), fraction of animals” value (mice [8]; 100 mg/kg @ 0.5 hr) was 3/4 and the “6 Hz (32 mA), fraction of animals” value (mice [8]; 100 mg/kg @ 1.0 hr) was 1/4 @. The “activity in the 6 Hz (minimal clonic seizure) model” value (mice [8]; mice, at 100 mg/kg) was “activity”, the “Promoter (SMN2 promoter test, summary YES/NO)” value (SMN2 promoter) was “YES” and the SMN2 promoter activity (SMN2 promoter) was “increased SMN2 promoter activity”.

For `CC(C)C(CC(N)=O)c1ccc(F)cc1` (centres unmarked) [AQ, 3-(4-Fluoro-phenyl)-4-methyl-pentanoic acid-amide], the “activity in the MES test” value (mice [3]; at 100 mg/kg) was “activity”, the responders at 65 mg/kg (rats [4]; [9]) was 86% and the “SMN2 promoter assay, evidence of activity (may warrant further study)” value (SMN2 promoter; NSC34 BLA reporter cells) was “show evidence of activity”. The “activity in the MES test” value (rats [5]) was “activity” and the “activity in the s.c. MET test” value (mice [2]; mice, at 300 mg/kg) was “activity”.
